Patent US7405317B2, “Phosphate-bearing prodrugs of sulfonyl hydrazines as hypoxia-selective antineoplastic agents” (priority 2004, dated 2008)
Where two headings read alike, the source gives them in different places.

Tests used:
[1] = test system: EMT6 murine mammary carcinoma cells; assay: Aerobic/hypoxic cell survival (clonogenic assay), EMT6; format: cell-based; settings: for cell kill: 0.1% oxygen, 10 μM drug concentration; for cell kill / cytotoxicity to EMT6 cells under oxygenated conditions: FIG. 5; for drug activity as a function of oxygen concentration: 10 or 25 μM, oxygen 0.05% to 21%, FIG. 6; for cytotoxicity to EMT6 cells under oxygenated conditions: normal air (21% oxygen), concentrations up to 25 μM; for in vitro cytotoxic activity to EMT6 cells versus parental racemic drug (potency and aerobic/hypoxic differential): de-phosphorylated enantiomers, aerobic/hypoxic cell assay
Procedure: (§1) EMT6 or CHO (parental or human cytochrome P-450 reductase transfected) cells, seeded in glass milk dilution bottles, were gassed for 2 hours through a rubber septum fitted with 13 gauge (inflow) and 18 gauge (outflow) needles with a mixture of 5% CO2, oxygen at various concentrations, with the balance of the mixture made up of nitrogen, to establish various hypoxic conditions. Drugs were then injected without disrupting hypoxia. After two hours, cells were collected and plated in a clonogenic assay to determine the surviving fraction, compared to untreated controls.
(§2) For in vitro analysis, KS119W must be converted to KS119OH (1) in an AP-catalyzed reaction shown above in FIG. 2, as the phosphorylated parent drug cannot cross cell membranes. KS119OH is then used in all subsequent in vitro studies shown in this section.
Moreover, the R- and S-enantiomers of KS119W (VNP40541 and VNP40551) were converted to the corresponding de-phosphorylated forms for study in the in vitro aerobic/hypoxic cell assay.

[2] = test system: H460 human lung carcinoma; format: in vivo, mice; settings: for tumor growth inhibition: H460 in CD-1 nude mice, KS119W 4 doses 180 mg/kg and 1 dose 240 mg/kg, CTX 100 mg/kg per dose, ip on days 15, 22, 27, 34, 43, CTX two hours after KS119W, FIG. 9; for reduction of final tumor volume compared with control group: H460, daily ip, FIG. 8
Procedure: (§3) The anti-tumor effects of aforementioned prodrugs are evaluated in both solid and liquid tumor models, including the B16-F10 murine melanoma, HTB177 human lung carcinoma models, DLD1 human colon carcinoma, EMT-6 murine mammary gland carcinoma, L1210 murine leukemia, lymphoma, prostate cancer, pancreatic cancer, and head-and-neck cancer. The prodrugs are given intravenously, orally, or intraperitoneally at doses from 10 mg/kg to 2000 mg/kg; they are give at different dosing schedules such as 4 times daily, once daily, or once every several days for up to 60 doses. Testing tumor cells were implanted subcutaneously into mice, which were randomized into groups immediately after tumor cell implantation (Day 0). Mice were injected intraperitoneally (ip) with either a bolus injection of 0.1 mL PBS or drug. The treatment was carried out in a designed dosing schedule. Tumor measurement in three dimensions was determined once a week with the formula L×H×W/2, where L, H, and W represent length, height, and width, respectively.
(§4) Efficacy of KS119 was studied in murine tumor model and human xenograft models. EMT-6 murine mammary carcinoma cells (3×10^5 cells/mouse) were implanted subcutaneously into Balb/c mice. H460 human lung carcinoma cells, HT29 human colon carcinoma cells and SHP77 human lung carcinoma cells were established as solid xenografts in nu/nu CD-1 mice and Scid/Beige mice with 7×10^7 cells/mouse, respectively. After implantation, tumors were allowed to grow to a size of 150 to 200 mm^3 before starting treatment with KS119. KS119 was formulated in a solvent containing polyethylene glycol 300 (PEG), ethyl alcohol, citric acid, and ascorbic acid.
(§5) Efficacies of KS119W and KS119 were compared with equivalence molar doses in EMT-6 tumor and H460 tumor models. KS119W was formulated with 0.25M sodium bicarbonate solution. The treatment was started when tumors researched 150 to 200 mm^3, and lasted up to 2 weeks. KS119 at doses of 80 and 100 mg/kg and KS119W at doses of 97.6 and 121.3 mg/kg were daily administrated into mice via ip injection. […] To assess the toxicity of treatment, body weight and peripheral blood cell count were monitored after treatment.
(§6) Combined therapy of KS119W with cytoxan (CTX) was evaluated by using KS119W at dose below the MTD in combination with nontoxic dose of CTX against EMT-6 murine mammary carcinoma and H460 human lung carcinoma in CD-1 nude mice. The tumors were allowed to grow to a size of approximately 200 mm^3. In H460 tumor model, the animals received either with 4 doses 180 mg/kg and 1 dose 240 mg/kg of KS119 or CTX at dose of 100 mg/kg per dose per animal, ip injecting the drugs on 15, 22, 27, 34 and 43 days after the tumor implantation. In the combination studies, CTX was given two hours after dosing KS119W.

[3] = test system: EMT-6 murine mammary carcinoma; format: in vivo, mice; settings: for tumor growth inhibition: EMT-6, KS119W daily 97 mg/kg for 7 doses, CTX 100 mg/kg ip once per week for 4 doses
Procedure: as §3, §4, §5, §6

[4] = Solubility of KS119 in co-solvent system; format: physicochemical; settings: polyethylene glycol (PEG) and ethanol co-solvent system, organic solvent or mixture, read-out: solubility in co-solvent system like polyethylene glycol (PEG) and ethanol
[5] = Toxicity of treatment in tumor-bearing mice (body weight, blood cell count, appearance); format: in vivo; settings: for toxicity of treatment (body weight, peripheral blood cell count): KS119 80 and 100 mg/kg, KS119W 97.6 and 121.3 mg/kg, daily ip
Procedure: as §3, with “respectively. The toxicity of these drugs in mice was mild as determined by body weight loss and animal appearance.” for “respectively.”
Efficacies of KS119W and KS119 were compared with equivalence molar doses in EMT-6 tumor and H460 tumor models. KS119W was formulated with 0.25M sodium bicarbonate solution. The treatment was started when tumors researched 150 to 200 mm^3, and lasted up to 2 weeks. KS119 at doses of 80 and 100 mg/kg and KS119W at doses of 97.6 and 121.3 mg/kg were daily administrated into mice via ip injection. […] The toxicity of KS119 and KS119W were dose-dependent. To assess the toxicity of treatment, body weight and peripheral blood cell count were monitored after treatment.
as §6, with “KS119W. […] The inhibition of combination therapy was statistically significant against all control groups with p values of 0.003, 0.015 and 0.038, respectively. Additive toxicity at the doses used for combination was manageable; while the 180 mg/kg qw ×4 doses of KS119W alone caused a maximum net body weight loss of 4.5%, the same dose in combination with 4 doses of CTX at 100 mg/kg per week caused 8.6% weight loss but no death. A similar degree of growth inhibition was also observed with EMT-6 tumor model. […]” for “KS119W.”

[6] = test system: CHO-SCS-II (non-transfected parental line); assay: Aerobic/hypoxic cell survival, parental CHO cells; format: cell-based; settings: drug 10 μM
Procedure: as §1, §2
(§7) Like KS119, cytochrome P-450 reductase can activate KS1190H under hypoxic conditions.

[7] = test system: CHO-450red (human cytochrome P-450 reductase transfected CHO cells); assay: Aerobic/hypoxic cell survival, cytochrome P-450 reductase transfected CHO cells; format: cell-based; settings: drug 10 μM
Procedure: as §1, §2, §7

[8] = test system: SHP77 human lung carcinoma; assay: In vivo anti-tumor activity, SHP77 xenograft; parameters: species or system mice; settings: SHP77/Scid-Beige; dose VNP40541 110 mpk, VNP40551 85 mpk
Procedure: as §3, with “respectively. The toxicity of these drugs in mice was mild as determined by body weight loss and animal appearance.” for “respectively.”
Efficacy of KS119 was studied in murine tumor model and human xenograft models. EMT-6 murine mammary carcinoma cells (3×10^5 cells/mouse) were implanted subcutaneously into Balb/c mice. […]

[9] = Maximum tolerated dose (MTD) finding; format: in vivo, mice
Procedure: In order to fairly select a better compound from two enantiomers of KS119W for future clinical development, finding maximum tolerated dose (MTD) for VNP40541 (R-form) and VNP40551 (S-form) was conducted and the results were shown as Table 3.

[10] = KS119W 97.2 mg/kg ×10 doses, KS119 equal molar dose 80 mg/kg
[11] = KS119W 121.6 mg/kg ×7 doses, KS119 equal molar dose 100 mg/kg

CC(OC(=O)N(N(CCCl)S(C)(=O)=O)S(C)(=O)=O)c1ccc([N+](=O)[O-])c(O)c1 (racemic) [KS119OH]
cell kill [1]: ~5 orders of magnitude | drug activity as a function of oxygen concentration [1]: significant drug activity at all oxygen concentrations below 10% oxygen | cytotoxicity to EMT6 cells under oxygenated conditions [1]: virtually inactive

O=P1(N(CCCl)CCCl)NCCCO1 (stereo not shown) [CTX, reference compound]
tumor growth inhibition [2]: 54% | tumor growth inhibition [3]: negligible effect

CC(OC(=O)N(N(CCCl)S(C)(=O)=O)S(C)(=O)=O)c1ccc([N+](=O)[O-])cc1 (stereo not shown) [KS119, 1,2-Bis(methylsulfonyl)-2-(2-chloroethyl)-hydrazine carboxylic acid 1-(4-nitrophenyl)ethyl ester, reference compound]
solubility [4]: < 5000 µg/mL | reduction of final tumor volume compared with control group [2, 10]: 40% | reduction of final tumor volume compared with control group [2, 11]: 40% | cell kill [1]: ~5 orders of magnitude | drug activity as a function of oxygen concentration [1]: significant drug activity at all oxygen concentrations below 10% oxygen | cytotoxicity to EMT6 cells under oxygenated conditions [1]: virtually inactive | toxicity of treatment (body weight, peripheral blood cell count) [5]: not significant hematological toxicity or severe weight loss

CC(OC(=O)N(N(CCCl)S(C)(=O)=O)S(C)(=O)=O)c1ccc([N+](=O)[O-])c(OP(=O)(O)O)c1 (stereo not shown) [KS119W, 1,2-Bis(methylsulfonyl)-2-(2-chloroethyl)hydrazine-carboxylic acid 1-(3-dihydrogenphosphonoxy-4-nitrophenyl)ethyl ester]
reduction of final tumor volume compared with control group [2, 10]: 60% | reduction of final tumor volume compared with control group [2, 11]: 78% | tumor growth inhibition [2]: 78% | tumor growth inhibition [3]: 59% | toxicity of treatment (body weight, peripheral blood cell count) [5]: not significant hematological toxicity or severe weight loss | maximum net body weight loss ([5]; KS119W 180 mg/kg qw ×4 doses alone or with 4 doses of CTX at 100 mg/kg per week): 4.5% | Surviving fraction at 0.1% oxygen [6]: 0.3336 | Surviving fraction in air [6]: 1.185 | Surviving fraction at 0.1% oxygen [7]: 0.009444 | Surviving fraction in air [7]: 0.8791

C[C@@H](OC(=O)N(N(CCCl)S(C)(=O)=O)S(C)(=O)=O)c1ccc([N+](=O)[O-])c(O)c1 [R-KS119OH]
in vitro cytotoxic activity to EMT6 cells versus parental racemic drug (potency and aerobic/hypoxic differential) [1]: very similar to the parental racemic drug

C[C@H](OC(=O)N(N(CCCl)S(C)(=O)=O)S(C)(=O)=O)c1ccc([N+](=O)[O-])c(O)c1 [S-KS119OH]
in vitro cytotoxic activity to EMT6 cells versus parental racemic drug (potency and aerobic/hypoxic differential) [1]: very similar to the parental racemic drug

C[C@H](OC(=O)N(N(CCCl)S(C)(=O)=O)S(C)(=O)=O)c1ccc([N+](=O)[O-])c(OP(=O)(O)O)c1 [VNP40551]
Inhibition (%) [8]: 82% | Inhibition (%) ([2]; H460/Nude Mice, dose VNP40541 80-140 mpk, VNP40551 40-80 mpk): 53-80% | Inhibition (%) ([3]; EMT6/BLAB-c Mice, dose VNP40541 85-115 mpk, VNP40551 55-85 mpk): 52-78% | MTD ([9]; BALB/c mice, × 5): 85 mpk | MTD ([9]; Nude CD-1 mice, × 10): 80 mpk | MTD ([9]; Scid/Beige mice, × 8): 85 mpk | Surviving fraction at 0.1% oxygen [6]: 0.1188 | Surviving fraction in air [6]: 1.148 | Surviving fraction at 0.1% oxygen [7]: 0.002553 | Surviving fraction in air [7]: 1.015
